According to patent US10463669B2, “Composition for treating or preventing liver cancer” (Seoul National University R&DB Foundation, priority 2016, dated 2019):

Columns and labels:
Hep3B cells = assay: Cell proliferation / cell viability, MTS assay; type: cell-based; details: Homo sapiens, treated for 96 hours
Protocol: (§1) HCC cell lines (Huh7 and Hep3B) were obtained from Korean Cell Line Bank (KCLB, Seoul, Korea). THLE-3 cell line (immortalized human liver […] cell line produced by infection with SV40 large T antigen) was obtained from ATCC (American Type Culture Collection). Cell line authentication by KCLB and ATCC was carried out by using DNA fingerprinting as a short tandem repeat analysis. All cell lines were tested for mycoplasma contamination. HCC cells were cultured in DMEM (Welgene, Gyeongsan-si, Korea) medium complemented with 10% fetal bovine serum (GenDepot, Barker, Tex., USA) in a humidified 5% CO2 incubator at 37° C. As it has been recommended by the ATCC manual, THLE-3 cells were cultured in BEGM (Lonza) medium complemented with 10% fetal bovine serum in a humidified 5% CO2 incubator at 37° C.
(§2) As it has been described before (10), the cell viability was measured by using Cell Titer 96 MTS (Promega). Cells were sewn in an amount of 500 to 1000 cells per well, and then treated for 96 hours at a pharmaceutical concentration as described in each graph. Each analysis was repeated 3 times at least. After plotting the data, IC50 values were obtained by using GraphPad software. By using Flexstation 3 multimode plate reader (Molecular Devices), optical density showing formazan production was measured at 490 nm. […]

Huh7 cells = assay: Cell proliferation / cell viability, MTS assay; type: cell-based; details: Homo sapiens, Huh-7, treated for 96 hours
Protocol: as §1, §2

[1] = system: PI3K isotype p110δ expression in HCC cells; details: HCC cells after treatment with H2O2
Protocol: Medium was exchanged every day, and the aforementioned cells were cultured for 4 days in 300 μmol/L hydrogen peroxide (H2O2) (Sigma Aldrich; H1009). In several experiments, the cells were treated for 1 hour with 5 mmol/L N-acetylcysteine (NAC) (Sigma Aldrich; A7250), 25 μmol/L idelalisib (LC Laboratoties, Woburn, Mass., USA; I-7447), 25 μmol/L perifosine (LC Laboratoties, Woburn, Mass., USA; P-6522), or 30 μmol/L GSK3β inhibitor (GSK3β inhibitor XI) (Santa Cruz; sc-204770) (31) before adding H2O2. Furthermore, sterilized distilled water (pH 7.0) was used as a negative control (i.e., mock treatment).
PCR was carried out by using TOPrealm qPCR 2×PreMIX (SYBR Green with high ROX) (Enzynomics, Daejeon, Korea; RT501M) and ABI Prism 7300 thermal cycler (Applied Biosystems, Foster City, Calif., USA). […] To examine the primer specificity, a dissociation step was additionally included.

IC50 (Hep3B cells) [µM]	IC50 (Huh7 cells) [µM]	Compound	p110δ expression (only isotype among p110α, p110β, p110δ, p110γ) [1]
< 30	< 30	CC[C@H](Nc1ncnc2nc[nH]c12)c1nc2cccc(F)c2c(=O)n1-c1ccccc1 [idelalisib, 5-fluoro-3-phenyl-2-[(1S)-1-(7H-purin-6-ylamino)propyl]-4(3H)-quinazolinone]	–
–	–	OO [H2O2, hydrogen peroxide]	increased
